# Measured values taken from patent publication US9018208B2, “Heterocycles as potassium channel modulators” (Icagen Inc., priority 2007, dated 2015).
# System: SH-SY5Y M-currents (KCNQ2, KCNQ3 and KCNQ5)
# Experiment: SH-SY5Y native cell line FLIPR assay (voltage-sensitive dye DiBAC)
# Assay type: cell-based, mouse neuroblastoma, rat glioma hybrid cell line
# Conditions: FLIPR assay, SH-SY5Y native cell line; Table 1; read-out: SH-SY5Y EC50
# Excerpt: SH-SY5Y cells, a mouse neuroblastoma, rat glioma hybrid cell line, functionally express M-currents (Robbins et al., J. Physiol. 451: 159-85 (1992). SH-SY5Y M-currents are likely comprised, at least in part, of KCNQ2, KCNQ3 and KCNQ5, since these genes are reportedly robustly expressed in differentiated SH-SY5Y cells (Selyanko et al., J. Neurosci. 19(18): 7742-56 (1999); Schroeder et al., J. Biol. Chem. 275(31): 24089-95 (2000)) and KCNQ3 dominant-negative constructs reduce M-current density in these cells (Selyanko et al., J. Neurosci. 22(5): RC212 (2002).
# SH-SY5Y were maintained in DMEM (high glucose) supplemented with 10% fetal bovine serum, 0.05 mM pyridoxine, 0.1 mM hypoxanthine, 400 nM aminopterin, […], 50 μgml^−1 gentamycin and 10 mM HEPES, in an incubator at 37° C. with a humidified atmosphere of 5% CO2. Cells were plated in 96 well plates differentiated by addition of 10 μM PGE1 and 50 μM isomethylbutylxanthine to the growth media prior to study.
# Differentiated SH-SY5Y cells were loaded with voltage-sensitive dye by incubation in Earls Balanced Salt Solution (EBSS) containing […] DiBAC for 1 h. Following loading, drug solution containing […] DiBAC was added to each well. Changes in fluorescence were measured every 30 s for 25 min. The maximum change in fluorescence was measured and expressed as a percentage of the maximum response obtained in the presence of a positive control agent.
row,SMILES,EC50
1,"CC(C)(C)Cc1c(NC(=O)C2CCC(F)(F)CC2)nc2ccccn12 [Compound 87, 4,4-difluoro-N-(3-neopentylimidazo[1,2-a]pyridin-2-yl)cyclohexanecarboxamide]",500 to 3000 nM
2,"CC(C)(C)CC(=O)Nc1nc2ccccn2c1CC(C)(C)C [Compound 88, 3,3-dimethyl-N-(3-neopentylimidazo[1,2-a]pyridin-2-yl)butanamide]",500 to 3000 nM
3,"C[C@@H](CC(=O)Nc1nc2ccc(C(F)(F)F)cn2c1C1CC1)C(F)(F)F [Compound 90, (S)—N-(3-cyclopropyl-6-(trifluoromethyl)imidazo[1,2-a]pyridin-2-yl)-4,4,4-trifluoro-3-methylbutanamide]",500 to 3000 nM

# Same assay, conditions: FLIPR assay, SH-SY5Y native cell line; Table 2; read-out: SH-SY5Y EC50
row,SMILES,EC50
1,"O=C(Nc1nc2ccc(F)cn2c1-c1ccccc1)C(F)(F)F [Compound 91, 2,2,2-trifluoro-N-(6-fluoro-3-phenylimidazo[1,2-a]pyridin-2-yl)acetamide]",3000 to 10000 nM
2,"O=C(Cc1ccc(F)cc1)Nc1nc2ccc(F)cn2c1-c1ccccc1 [Compound 92, N-(6-fluoro-3-phenylimidazo[1,2-a]pyridin-2-yl)-2-(4-fluorophenyl)acetamide]",500 to 3000 nM
3,"CC(C)(C)CC(=O)Nc1nc2ccc(F)cn2c1-c1ccccc1 [Compound 93, N-(6-fluoro-3-phenylimidazo[1,2-a]pyridin-2-yl)-3,3-dimethylbutanamide]",500 to 3000 nM
4,"O=C(CC1CCCC1)Nc1nc2ccc(F)cn2c1-c1ccccc1 [Compound 94, 2-cyclopentyl-N-(6-fluoro-3-phenylimidazo[1,2-a]pyridin-2-yl)acetamide]",< 500 nM
5,"O=C(CC(F)(F)F)Nc1nc2ccc(F)cn2c1-c1ccccc1 [Compound 95, 3,3,3-trifluoro-N-(6-fluoro-3-phenylimidazo[1,2-a]pyridin-2-yl)propanamide]",3000 to 10000 nM
6,"O=C(Cc1ccccc1)Nc1nc2ccc(F)cn2c1-c1ccccc1 [Compound 96, N-(6-fluoro-3-phenylimidazo[1,2-a]pyridin-2-yl)-2-phenylacetamide]",500 to 3000 nM
7,"O=C(CCC(F)(F)F)Nc1nc2ccc(F)cn2c1-c1ccccc1 [Compound 97, 4,4,4-trifluoro-N-(6-fluoro-3-phenylimidazo[1,2-a]pyridin-2-yl)butanamide]",500 to 3000 nM
8,"O=C(CC1CCCC1)Nc1nc2cc(C(F)(F)F)ccn2c1-c1ccccc1 [Compound 98, 2-cyclopentyl-N-(3-phenyl-7-(trifluoromethyl)imidazo[1,2-a]pyridin-2-yl)acetamide]",500 to 3000 nM
9,"O=C(Cc1ccc(F)cc1)Nc1nc2cc(C(F)(F)F)ccn2c1-c1ccccc1 [Compound 99, 2-(4-fluorophenyl)-N-(3-phenyl-7-(trifluoromethyl)imidazo[1,2-a]pyridin-2-yl)acetamide]",< 500 nM
10,"CC(C)(C)CC(=O)Nc1nc2cc(C(F)(F)F)ccn2c1-c1ccccc1 [Compound 100, 3,3-dimethyl-N-(3-phenyl-7-(trifluoromethyl)imidazo[1,2-a]pyridin-2-yl)butanamide]",500 to 3000 nM
11,"O=C(Cc1ccccc1)Nc1nc2cc(C(F)(F)F)ccn2c1-c1ccccc1 [Compound 101, 2-phenyl-N-(3-phenyl-7-(trifluoromethyl)imidazo[1,2-a]pyridin-2-yl)acetamide]",500 to 3000 nM
12,"O=C(Cc1ccc(F)cc1)Nc1nc2ccc(F)cn2c1-c1ccc(F)cc1 [Compound 102, N-(6-fluoro-3-(4-fluorophenyl)imidazo[1,2-a]pyridin-2-yl)-2-(4-fluorophenyl)acetamide]",< 500 nM
13,"CC(C)(C)CC(=O)Nc1nc2ccc(F)cn2c1-c1ccc(F)cc1 [Compound 103, N-(6-fluoro-3-(4-fluorophenyl)imidazo[1,2-a]pyridin-2-yl)-3,3-dimethylbutanamide]",< 500 nM
14,"O=C(CC(F)(F)F)Nc1nc2cc(C(F)(F)F)ccn2c1-c1ccccc1 [Compound 104, 3,3,3-trifluoro-N-(3-phenyl-7-(trifluoromethyl)imidazo[1,2-a]pyridin-2-yl)propanamide]",3000 to 10000 nM
15,"O=C(CCC(F)(F)F)Nc1nc2cc(C(F)(F)F)ccn2c1-c1ccccc1 [Compound 105, 4,4,4-trifluoro-N-(3-phenyl-7-(trifluoromethyl)imidazo[1,2-a]pyridin-2-yl)butanamide]",3000 to 10000 nM
16,"O=C(Cc1ccccc1)Nc1nc2ccc(F)cn2c1-c1ccc(F)cc1 [Compound 106, N-(6-fluoro-3-(4-fluorophenyl)imidazo[1,2-a]pyridin-2-yl)-2-phenylacetamide]",500 to 3000 nM
17,"O=C(CC1CCCC1)Nc1nc2ccc(F)cn2c1-c1ccc(F)cc1 [Compound 107, 2-cyclopentyl-N-(6-fluoro-3-(4-fluorophenyl)imidazo[1,2-a]pyridin-2-yl)acetamide]",< 500 nM
18,"O=C(CCC(F)(F)F)Nc1nc2ccc(F)cn2c1-c1ccc(F)cc1 [Compound 108, 4,4,4-trifluoro-N-(6-fluoro-3-(4-fluorophenyl)imidazo[1,2-a]pyridin-2-yl)butanamide]",500 to 3000 nM
19,"CC(C(=O)Nc1nc2ccc(F)cn2c1-c1ccc(F)cc1)c1ccccc1 (centres unmarked) [Compound 109, N-(6-fluoro-3-(4-fluorophenyl)imidazo[1,2-a]pyridin-2-yl)-2-phenylpropanamide]",500 to 3000 nM
20,"CC(C(=O)Nc1nc2cc(C(F)(F)F)ccn2c1-c1ccccc1)c1ccccc1 (centres unmarked) [Compound 110, 2-phenyl-N-(3-phenyl-7-(trifluoromethyl)imidazo[1,2-a]pyridin-2-yl)propanamide]",500 to 3000 nM
21,"O=C(Cc1ccc(F)cc1)Nc1nc2cc(C(F)(F)F)ccn2c1-c1ccc(F)cc1 [Compound 111, 2-(4-fluorophenyl)-N-(3-(4-fluorophenyl)-7-(trifluoromethyl)imidazo[1,2-a]pyridin-2-yl)acetamide]",500 to 3000 nM
22,"O=C(Cc1ccccc1)Nc1nc2cc(C(F)(F)F)ccn2c1-c1ccc(F)cc1 [Compound 112, N-(3-(4-fluorophenyl)-7-(trifluoromethyl)imidazo[1,2-a]pyridin-2-yl)-2-phenylacetamide]",500 to 3000 nM
23,"CC(C)(C)CC(=O)Nc1nc2cc(C(F)(F)F)ccn2c1-c1ccc(F)cc1 [Compound 113, N-(3-(4-fluorophenyl)-7-(trifluoromethyl)imidazo[1,2-a]pyridin-2-yl)-3,3-dimethylbutanamide]",500 to 3000 nM
24,"CC(C(=O)Nc1nc2cc(C(F)(F)F)ccn2c1-c1ccc(F)cc1)c1ccccc1 (centres unmarked) [Compound 114, N-(3-(4-fluorophenyl)-7-(trifluoromethyl)imidazo[1,2-a]pyridin-2-yl)-2-phenylpropanamide]",500 to 3000 nM
25,"O=C(Cc1ccccc1)Nc1nc2ccc(F)cn2c1-c1ccc(F)cc1F [Compound 115, N-(3-(2,4-difluorophenyl)-6-fluoroimidazo[1,2-a]pyridin-2-yl)-2-phenylacetamide]",500 to 3000 nM
26,"CC(C)(C)CC(=O)Nc1nc2ccc(F)cn2c1-c1ccc(F)cc1F [Compound 116, N-(3-(2,4-difluorophenyl)-6-fluoroimidazo[1,2-a]pyridin-2-yl)-3,3-dimethylbutanamide]",500 to 3000 nM
27,"O=C(Cc1ccc(F)cc1)Nc1nc2ccc(F)cn2c1-c1ccc(F)cc1F [Compound 117, N-(3-(2,4-difluorophenyl)-6-fluoroimidazo[1,2-a]pyridin-2-yl)-2-(4-fluorophenyl)acetamide]",500 to 3000 nM
28,"O=C(CC1CCCC1)Nc1nc2ccc(F)cn2c1-c1ccc(F)cc1F [Compound 118, 2-cyclopentyl-N-(3-(2,4-difluorophenyl)-6-fluoroimidazo[1,2-a]pyridin-2-yl)acetamide]",500 to 3000 nM

# Same assay, conditions: read-out: SH-SY5Y_EC50
row,SMILES,EC50
1,"O=C(Cc1ccc(F)cc1)Nc1nc2ccc(F)cn2c1-c1ccccc1 [Compound 92, N-(6-fluoro-3-phenylimidazo[1,2-a]pyridin-2-yl)-2-(4-fluorophenyl)acetamide]",732 nM
